The source made the active and inactive calls.
Assays:
[1] = biological target: T1, Peroxisome proliferator-activated receptor gamma/Nuclear receptor coactivator 2 (Homo sapiens, UniProt P37231); format: functional
[2] = biological target: T2, Peroxisome proliferator-activated receptor gamma/Nuclear receptor coactivator 1 (Homo sapiens, UniProt P37231); format: functional
[3] = biological target: T3, Peroxisome proliferator-activated receptor gamma/Nuclear receptor coactivator 3 (Homo sapiens, UniProt P37231); format: functional
[4] = biological target: Heat shock protein HSP 90-alpha (Homo sapiens, UniProt P07900); format: functional, organism-based
[5] = biological target: T4, High affinity choline transporter 1 (Homo sapiens, UniProt Q9GZV3); experiment: human choline transporter blockers, potency – cell-based, 5-point CRC, membrane potential dye, dose response (AID 504840); format: functional
T4 sequence (Q9GZV3 whole entry): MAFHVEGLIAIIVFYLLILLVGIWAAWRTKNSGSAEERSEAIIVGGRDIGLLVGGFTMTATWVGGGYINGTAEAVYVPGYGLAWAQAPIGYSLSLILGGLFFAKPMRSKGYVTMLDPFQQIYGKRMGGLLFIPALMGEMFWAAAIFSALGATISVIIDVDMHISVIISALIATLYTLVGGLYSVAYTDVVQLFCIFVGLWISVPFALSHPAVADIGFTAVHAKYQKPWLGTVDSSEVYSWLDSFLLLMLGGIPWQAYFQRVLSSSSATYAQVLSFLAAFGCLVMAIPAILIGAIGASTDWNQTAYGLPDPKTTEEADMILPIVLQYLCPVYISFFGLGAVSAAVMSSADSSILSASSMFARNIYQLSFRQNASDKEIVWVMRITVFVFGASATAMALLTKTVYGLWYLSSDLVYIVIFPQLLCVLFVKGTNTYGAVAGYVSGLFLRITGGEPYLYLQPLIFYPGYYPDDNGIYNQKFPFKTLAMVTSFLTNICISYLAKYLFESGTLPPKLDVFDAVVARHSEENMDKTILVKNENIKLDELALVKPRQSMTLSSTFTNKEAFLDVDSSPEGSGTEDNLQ

H9c2 = experiment: cells; format: functional, cell-based; settings: Rattus norvegicus, H9c2, Myocardium;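 further: confirmatory concentration-response retest of ultra-high-throughput screening hits for modulation of myocardial damage; cell death induced by hydrogen peroxide oxidative stress; compound pretreatment for 60 min then peroxide exposure for 2 h; potency is for protecting the cells against peroxide damage rather than for killing them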
[6] = biological target: T4, High affinity choline transporter 1; experiment: human choline transporter blockers, potency – cell-based, 10-point CRC, membrane potential dye, dose response (AID 588401); format: functional;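 further: membrane potential dye fluorescence of choline-evoked depolarization via CHT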
[7] = biological target: T2, Peroxisome proliferator-activated receptor gamma/Nuclear receptor coactivator 1; experiment: (§1) TR-FRET dose response biochemical High Throughput Screening assay for agonists of the steroid receptor coactivator 1 (SRC-1) recruitment by the peroxisome proliferator-activated receptor gamma (PPAR gamma): non-selective agonists. [Related pubchem assays (depositor defined):AID1300, AID1808, AID504735, AID631]; format: protein assay
[8] = biological target: T3, Peroxisome proliferator-activated receptor gamma/Nuclear receptor coactivator 3; experiment: as §1, with “3 (SRC-3)” for “1 (SRC-1)”, “assays: 1301 (Confirmation screen.), 1048 (Primary screen.)]” for “assays (depositor defined):AID1300, AID1808, AID504735, AID631]”; format: functional
[9] = biological target: T1, Peroxisome proliferator-activated receptor gamma/Nuclear receptor coactivator 2; experiment: TR-FRET dose response biochemical High Throughput Screening assay for agonists of the steroid receptor coactivator 2 (SRC-2) recruitment by the peroxisome proliferator-activated receptor gamma (PPAR gamma): non-selective agonists. [Related pubchem assays: 1297, 1032 ]; format: functional
Bcl-2-related protein A1 = biological target: T5, Bcl-2-related protein A1 (Mus musculus, UniProt Q07440); format: functional;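 further: confirmatory dose–response counterscreen on Bfl-1, used to check hits from a UBC13 polyubiquitin inhibitor campaign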
T5 sequence (Q07440 whole entry): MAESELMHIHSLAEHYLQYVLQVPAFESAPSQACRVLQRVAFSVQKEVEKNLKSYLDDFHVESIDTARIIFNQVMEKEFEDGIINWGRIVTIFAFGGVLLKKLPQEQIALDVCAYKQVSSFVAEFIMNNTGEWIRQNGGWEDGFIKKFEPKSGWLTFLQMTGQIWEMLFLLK

[10] = biological target: T6, Ubiquitin-conjugating enzyme E2 N (Homo sapiens, UniProt P61088); format: functional
T6 sequence (P61088 whole entry): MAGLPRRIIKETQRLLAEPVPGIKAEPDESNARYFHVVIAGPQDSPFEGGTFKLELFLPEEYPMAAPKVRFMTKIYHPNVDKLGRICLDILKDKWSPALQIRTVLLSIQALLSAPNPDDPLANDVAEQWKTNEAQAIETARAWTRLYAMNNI

[11] = biological target: T6, Ubiquitin-conjugating enzyme E2 N; format: functional; remark: listed apart in the source
[12] = biological target: T7, Long-chain-fatty-acid--AMP ligase FadD28 (Mycobacterium tuberculosis, UniProt P9WQ59); experiment: Fluorescence polarization aasay to screen for inhibitors that compete for the binding of FadD28 to a bisubstrate Measured in Biochemical System Using Plate Reader - 2147-01_Inhibitor_Dose_CherryPick_Activity.; format: functional, Mycobacterium tuberculosis H37Rv
T7 sequence (P9WQ59 whole entry): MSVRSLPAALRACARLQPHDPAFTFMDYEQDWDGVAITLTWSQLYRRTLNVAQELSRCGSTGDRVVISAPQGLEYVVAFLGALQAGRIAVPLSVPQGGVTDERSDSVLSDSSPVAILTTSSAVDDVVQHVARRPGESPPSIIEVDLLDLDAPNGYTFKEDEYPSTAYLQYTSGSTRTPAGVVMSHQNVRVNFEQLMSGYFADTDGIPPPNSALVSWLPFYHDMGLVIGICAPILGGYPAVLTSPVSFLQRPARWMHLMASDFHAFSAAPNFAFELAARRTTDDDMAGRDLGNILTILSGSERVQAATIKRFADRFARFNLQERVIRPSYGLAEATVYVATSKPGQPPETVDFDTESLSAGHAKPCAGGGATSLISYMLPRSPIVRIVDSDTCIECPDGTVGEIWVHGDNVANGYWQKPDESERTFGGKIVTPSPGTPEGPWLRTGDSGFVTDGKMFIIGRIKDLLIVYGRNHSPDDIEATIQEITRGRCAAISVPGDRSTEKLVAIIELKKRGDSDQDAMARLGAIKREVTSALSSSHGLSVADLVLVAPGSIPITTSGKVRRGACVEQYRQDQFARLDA

Escherichia coli = experiment: microbe, parasite or virus in culture

T2 sequence (P37231 whole entry): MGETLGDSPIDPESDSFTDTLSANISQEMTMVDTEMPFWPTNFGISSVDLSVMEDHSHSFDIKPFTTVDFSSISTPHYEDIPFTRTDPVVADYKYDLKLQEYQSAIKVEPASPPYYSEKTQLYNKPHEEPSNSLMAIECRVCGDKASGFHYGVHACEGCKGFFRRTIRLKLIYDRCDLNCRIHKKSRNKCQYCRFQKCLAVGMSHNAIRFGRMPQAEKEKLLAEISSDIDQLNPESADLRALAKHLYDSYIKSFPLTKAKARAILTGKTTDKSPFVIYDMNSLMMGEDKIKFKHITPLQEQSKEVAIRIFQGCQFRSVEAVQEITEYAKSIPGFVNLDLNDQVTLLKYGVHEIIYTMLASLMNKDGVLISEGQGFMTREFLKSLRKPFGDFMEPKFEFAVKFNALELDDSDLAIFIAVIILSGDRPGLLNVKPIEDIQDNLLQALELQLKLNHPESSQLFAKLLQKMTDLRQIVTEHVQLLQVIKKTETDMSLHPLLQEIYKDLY
T2 sequence (Q15788 whole entry, further chain): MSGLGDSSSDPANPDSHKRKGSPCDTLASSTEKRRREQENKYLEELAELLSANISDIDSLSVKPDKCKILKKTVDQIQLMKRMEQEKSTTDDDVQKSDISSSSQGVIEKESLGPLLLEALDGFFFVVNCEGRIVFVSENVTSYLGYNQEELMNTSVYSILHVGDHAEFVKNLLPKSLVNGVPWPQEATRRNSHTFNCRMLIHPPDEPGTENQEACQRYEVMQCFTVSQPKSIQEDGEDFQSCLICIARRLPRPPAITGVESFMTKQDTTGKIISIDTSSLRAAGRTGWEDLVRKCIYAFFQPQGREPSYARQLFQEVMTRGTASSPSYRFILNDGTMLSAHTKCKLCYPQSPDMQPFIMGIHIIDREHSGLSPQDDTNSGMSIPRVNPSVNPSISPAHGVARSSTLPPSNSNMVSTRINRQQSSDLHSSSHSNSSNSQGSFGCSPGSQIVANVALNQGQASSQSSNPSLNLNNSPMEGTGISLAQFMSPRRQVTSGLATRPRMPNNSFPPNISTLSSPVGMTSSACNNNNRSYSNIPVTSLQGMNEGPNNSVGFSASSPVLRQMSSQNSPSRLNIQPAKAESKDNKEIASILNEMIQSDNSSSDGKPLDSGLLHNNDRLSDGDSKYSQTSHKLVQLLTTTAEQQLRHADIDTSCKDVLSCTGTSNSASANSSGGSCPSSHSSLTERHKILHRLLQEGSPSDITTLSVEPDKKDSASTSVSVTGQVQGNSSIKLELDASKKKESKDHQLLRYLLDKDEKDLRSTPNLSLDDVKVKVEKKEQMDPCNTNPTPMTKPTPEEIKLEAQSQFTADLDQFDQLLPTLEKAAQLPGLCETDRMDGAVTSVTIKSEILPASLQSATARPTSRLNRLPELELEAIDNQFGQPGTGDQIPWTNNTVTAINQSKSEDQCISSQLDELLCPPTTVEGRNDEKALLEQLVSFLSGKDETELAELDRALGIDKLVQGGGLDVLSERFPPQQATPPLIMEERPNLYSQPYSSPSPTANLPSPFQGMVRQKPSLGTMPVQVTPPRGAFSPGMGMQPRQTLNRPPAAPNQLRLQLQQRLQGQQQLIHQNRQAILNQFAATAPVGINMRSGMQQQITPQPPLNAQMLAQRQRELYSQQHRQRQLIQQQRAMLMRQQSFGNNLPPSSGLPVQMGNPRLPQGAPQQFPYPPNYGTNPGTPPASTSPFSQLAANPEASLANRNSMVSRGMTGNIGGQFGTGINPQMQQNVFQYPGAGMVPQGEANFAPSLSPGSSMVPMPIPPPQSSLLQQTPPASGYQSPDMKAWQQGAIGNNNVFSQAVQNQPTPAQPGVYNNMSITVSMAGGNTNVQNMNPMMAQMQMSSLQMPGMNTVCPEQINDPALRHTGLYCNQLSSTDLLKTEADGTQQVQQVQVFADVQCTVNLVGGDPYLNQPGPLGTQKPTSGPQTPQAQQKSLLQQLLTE
T1 sequence (P37231 whole entry): as the sequence (P37231 whole entry) above
T1 sequence (Q15596 whole entry, further chain): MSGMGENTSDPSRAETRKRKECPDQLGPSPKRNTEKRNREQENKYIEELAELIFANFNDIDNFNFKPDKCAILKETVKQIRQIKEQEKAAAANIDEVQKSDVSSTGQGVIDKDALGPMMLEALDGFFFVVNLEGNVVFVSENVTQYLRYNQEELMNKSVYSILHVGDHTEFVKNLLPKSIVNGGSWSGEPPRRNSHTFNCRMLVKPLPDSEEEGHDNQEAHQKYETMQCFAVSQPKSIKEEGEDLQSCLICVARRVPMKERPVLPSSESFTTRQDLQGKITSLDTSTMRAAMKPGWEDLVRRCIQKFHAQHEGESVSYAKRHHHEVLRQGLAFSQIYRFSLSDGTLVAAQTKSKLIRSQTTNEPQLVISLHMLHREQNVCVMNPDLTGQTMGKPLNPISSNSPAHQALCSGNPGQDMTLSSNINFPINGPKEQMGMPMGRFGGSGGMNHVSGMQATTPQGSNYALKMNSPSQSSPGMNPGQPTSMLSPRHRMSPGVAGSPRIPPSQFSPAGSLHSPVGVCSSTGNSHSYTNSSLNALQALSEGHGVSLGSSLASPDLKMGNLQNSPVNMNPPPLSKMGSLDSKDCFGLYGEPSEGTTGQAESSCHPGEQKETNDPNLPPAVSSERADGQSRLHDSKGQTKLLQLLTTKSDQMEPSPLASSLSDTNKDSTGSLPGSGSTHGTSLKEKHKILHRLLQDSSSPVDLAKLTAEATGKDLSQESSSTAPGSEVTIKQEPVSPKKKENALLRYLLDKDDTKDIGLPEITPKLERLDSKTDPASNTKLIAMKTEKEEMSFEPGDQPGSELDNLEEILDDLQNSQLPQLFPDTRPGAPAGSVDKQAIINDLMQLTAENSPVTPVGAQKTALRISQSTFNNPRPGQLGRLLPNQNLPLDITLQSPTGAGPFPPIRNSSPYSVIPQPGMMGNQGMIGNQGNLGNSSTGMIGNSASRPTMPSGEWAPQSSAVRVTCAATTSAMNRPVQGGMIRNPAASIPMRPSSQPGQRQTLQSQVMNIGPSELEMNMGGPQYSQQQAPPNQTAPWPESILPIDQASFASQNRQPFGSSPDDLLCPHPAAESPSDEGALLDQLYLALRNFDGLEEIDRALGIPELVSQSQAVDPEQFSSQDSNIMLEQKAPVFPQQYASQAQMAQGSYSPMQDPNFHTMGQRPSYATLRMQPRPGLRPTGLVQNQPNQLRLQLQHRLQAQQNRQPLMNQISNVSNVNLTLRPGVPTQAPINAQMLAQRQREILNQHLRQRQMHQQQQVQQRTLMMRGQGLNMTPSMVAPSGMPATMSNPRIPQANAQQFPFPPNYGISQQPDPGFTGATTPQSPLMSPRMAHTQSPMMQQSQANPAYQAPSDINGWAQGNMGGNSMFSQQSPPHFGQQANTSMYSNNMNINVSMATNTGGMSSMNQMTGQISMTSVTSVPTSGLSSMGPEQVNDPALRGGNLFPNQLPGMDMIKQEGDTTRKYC

Compound	IC50 [5]	IC50 [6]	EC50 [7]	EC50 [8]	EC50 [9]	also measured
Oc1c(Br)cc(Br)cc1/C=N/Cc1ccc(F)cc1	9.21 µM (active)	3.64 µM (active)				EC50 [1]: 38.3 µM (not active); EC50 [2]: > 79.4 µM (not active); EC50 [3]: > 79.4 µM (not active); AC50 [4]: 6.15 µM (active); IC50 (H9c2): > 79 µM (inactive)
Cn1c(=O)cc(SCC(=O)Nc2ccc3c(c2)OCO3)c2ccccc21			> 79.4 µM (inactive)	> 79.4 µM (not active)	> 79.4 µM (not active)	
Cc1nc(N)sc1C(=O)N/N=C/c1c[nH]c2ccccc12						IC50 (Bcl-2-related protein A1): > 20 µM (inactive); IC50 [10]: 1.33 µM (active); IC50 [11]: 1.25 µM (active); AC50 [12]: 55.1 µM (active)
COc1ccc(C(=O)NC2(C(F)(F)F)C(=O)Nc3c2c(=O)[nH]c(=O)n3CCc2ccc(OC)c(OC)c2)cc1 (stereo not given)						AC50 (Escherichia coli): 25.4 µM (active)
Cc1ccc(C[S+]([O-])Cc2ccc(C(=O)NC3CCCC(C)C3C)o2)cc1 (stereo not given)	9.8 µM (active)	7.23 µM (active)				
O=C(O)COc1ccc2c(c1Cl)N=S=N2			9.32 µM (active)	59 µM (not active)	12.5 µM (not active)	

From ChEMBL document CHEMBL1201862, “PubChem BioAssay data set” (2004)
